Reference: patent US8669272B2, “2,5-disubstituted piperidine orexin receptor antagonists” (Merck Sharp & Dohme Corp., priority 2008, dated 2014)

Experiments:
orexin-1 receptor (OX1R) = target: T1, orexin-1 receptor (OX1R) (Homo sapiens, UniProt O43613); test: radioligand binding assay, membranes from CHO cells expressing OX1; conditions: CHO cell membranes
T1 construct: expressed in transfected cells; host or cells: CHO cells (membranes)
T1 sequence (O43613 1-425): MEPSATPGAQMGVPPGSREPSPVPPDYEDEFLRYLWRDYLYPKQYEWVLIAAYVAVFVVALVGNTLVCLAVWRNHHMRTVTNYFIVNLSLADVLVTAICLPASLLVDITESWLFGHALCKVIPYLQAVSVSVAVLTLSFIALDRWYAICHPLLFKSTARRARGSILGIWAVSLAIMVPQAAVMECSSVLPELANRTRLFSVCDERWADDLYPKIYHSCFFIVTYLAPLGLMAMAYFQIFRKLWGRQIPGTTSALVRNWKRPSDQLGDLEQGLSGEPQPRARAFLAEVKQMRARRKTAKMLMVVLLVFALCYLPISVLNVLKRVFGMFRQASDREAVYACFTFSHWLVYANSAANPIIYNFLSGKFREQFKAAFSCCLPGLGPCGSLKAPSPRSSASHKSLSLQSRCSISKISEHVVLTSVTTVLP
Method: (§1) The utility of the compounds in accordance with the present invention as orexin receptor OX1R and/or OX2R antagonists may be readily determined without undue experimentation by methodology well known in the art, including the “FLIPR Ca^2+ Flux Assay” (Okumura et al., Biochem. Biophys. Res. Comm. 280:976-981, 2001). In a typical experiment the OX1 and OX2 receptor antagonistic activity of the compounds of the present invention was determined in accordance with the following experimental method. For intracellular calcium measurements, Chinese hamster ovary (CHO) cells expressing the rat OX1 receptor or the human OX2 receptor, are grown in Iscove's modified DMEM containing 2 mM L-glutamine, […], 1% hypoxanthine-thymidine supplement, 100 U/ml penicillin, 100 ug/ml streptomycin and 10% heat-inactivated fetal calf serum (FCS). The cells are seeded at 20,000 cells/well into Becton-Dickinson black 384-well clear bottom sterile plates coated with poly-D-lysine. All reagents were from GIBCO-Invitrogen Corp. The seeded plates are incubated overnight at 37° C. and 5% CO2. Ala-6,12 human orexin-A as the agonist is prepared as a 1 mM stock solution in 1% bovine serum albumin (BSA) and diluted in assay buffer (HBSS containing 20 mM HEPES, 0.1% BSA and 2.5 mM probenecid, pH7.4) for use in the assay at a final concentration of 70 pM. Test compounds are prepared as 10 mM stock solution in DMSO, then diluted in 384-well plates, first in DMSO, then assay buffer. On the day of the assay, cells are washed 3 times with 100 ul assay buffer and then incubated for 60 min (37° C., 5% CO2) in 60 ul assay buffer containing 1 uM Fluo-4AM ester, 0.02% pluronic acid, and 1% BSA. The dye loading solution is then aspirated and cells are washed 3 times with 100 ul assay buffer. 30 ul of that same buffer is left in each well. Within the Fluorescent Imaging Plate Reader (FLIPR, Molecular Devices), test compounds are added to the plate in a volume of 25 ul, incubated for 5 min and finally 25 ul of agonist is added. Fluorescence is measured for each well at 1 second intervals for 5 minutes and the height of each fluorescence peak is compared to the height of the fluorescence peak induced by 70 pM Ala-6,12 orexin-A with buffer in place of antagonist. […] Alternatively, compound potency can be assessed by a radioligand binding assay (described in Bergman et. al. Bioorg. Med. Chem. Lett. 2008, 18, 1425-1430) in which the inhibition constant (Ki) is determined in membranes prepared from CHO cells expressing either the orexin-1 (OX1) or orexin-2 (OX2) receptor. The intrinsic orexin receptor antagonist activity of a compound which may be used in the present invention may be determined by these assays.

orexin-2 receptor (OX2R) = target: T2, orexin-2 receptor (OX2R) (Homo sapiens, UniProt O43614); test: radioligand binding assay, membranes from CHO cells expressing OX2; conditions: CHO cell membranes
T2 construct: expressed in transfected cells; host or cells: CHO cells (membranes)
T2 sequence (O43614 1-444): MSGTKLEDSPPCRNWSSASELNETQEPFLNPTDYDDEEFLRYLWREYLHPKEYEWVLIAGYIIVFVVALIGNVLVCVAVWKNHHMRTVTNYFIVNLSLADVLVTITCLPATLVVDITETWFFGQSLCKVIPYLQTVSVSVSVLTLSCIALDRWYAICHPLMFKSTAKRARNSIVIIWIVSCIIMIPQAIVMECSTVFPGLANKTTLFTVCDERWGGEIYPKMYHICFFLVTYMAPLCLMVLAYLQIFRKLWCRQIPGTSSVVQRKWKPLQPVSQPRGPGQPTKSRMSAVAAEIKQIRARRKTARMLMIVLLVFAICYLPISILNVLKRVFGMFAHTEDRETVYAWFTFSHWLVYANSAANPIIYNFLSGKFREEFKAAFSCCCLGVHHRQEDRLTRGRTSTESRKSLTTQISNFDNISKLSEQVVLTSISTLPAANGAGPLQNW
Method: as §1

Ki (orexin-1 receptor (OX1R)) [nM] | Ki (orexin-2 receptor (OX2R)) [nM] | SMILES
0.86 | 0.36 | Cc1ccc(-n2nccn2)c(C(=O)N2C[C@H](COc3cccc(F)c3)CC[C@H]2C)c1 [A-9, (2R,5R)-5-[(3-fluorophenoxy)methyl]-2-methyl-1-[5-methyl-2-(2H-1,2,3-triazol-2-yl)benzoyl]piperidine]
2.7 | 0.2 | Cc1ccc(-n2nccn2)c(C(=O)N2C[C@H](COc3nccc4ccccc34)CC[C@H]2C)c1 [A-15, 1-({(3R,6R)-6-methyl-1-[5-methyl-2-(2H-1,2,3-triazol-2-yl)benzoyl]piperidine-3-yl}methoxy)isoquinoline]
4.5 | 4.6 | Cc1ccc(-n2nccn2)c(C(=O)N2C[C@H](Cc3nc4ccccc4n3C)CC[C@H]2C)c1 [C-2, 1-methyl-2-({(3S,6R)-6-methyl-1-[5-methyl-2-(2H-1,2,3-triazol-2-yl)benzoyl]piperidin-3-yl}methyl)-1H-benzimidazole]
95 | 6.9 | Cc1ccc(-n2nccn2)c(C(=O)N2C[C@H](CC(=O)N3CCCc4ccccc43)CC[C@H]2C)c1 [C-6, 1-({(3S,6R)-6-methyl-1-[5-methyl-2-(2H-1,2,3-triazol-2-yl)benzoyl]piperidin-3-yl}acetyl)-1,2,3,4-tetrahydroquinoline]
